Test results reported in patent publication US20240124408A1 (Sanofi, priority 2020, published 2024).

How the values were obtained:
Assay type in all cases: cell-based
human TRPM8 [1] = target: T1, human TRPM8 (Homo sapiens, UniProt Q7Z2W7); assay: In vitro human TRPM8 fluorescence calcium flux assay (recombinant CHO cells, Fluo4-AM, FDSS6000); conditions: recombinant CHO cells expressing human TRPM8; menthol-related EC50, normalized to 100 μM menthol
T1 construct: expressed in transfected cells; host or cells: CHO (p658 mammalian expression vector)
Method in brief: (§1)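 CHO cells stably expressing pig or human TRPM8, loaded with 2 μM Fluo4-AM in HBSS/20 mM HEPES/0.1% BSA/2.5 mM probenecid for 1 h at RT. Intracellular calcium read kinetically for 3 min after compound addition. EC50 from sixteen-point curves, normalized to 100 μM menthol maximal response.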

pig TRPM8 [2] = target: T2, pig TRPM8 (Sus scrofa, UniProt F1SM15); assay: In vitro pig TRPM8 fluorescence calcium flux assay (recombinant CHO cells, Fluo4-AM, FDSS6000); conditions: recombinant CHO cells expressing pig TRPM8; menthol-related EC50, normalized to 100 μM menthol
T2 construct: expressed in transfected cells; host or cells: CHO (pcDNA5/FRT/TO vector; hygromycin B and blasticidin selection)
Method in brief: as §1

human TRPM8 [3] = target: T1, human TRPM8; assay: In vitro human TRPM8 automated patch-clamp assay (SyncroPatch 384PE, CHO cells); conditions: CHO cells expressing human TRPM8, 28° C.
Experimental: (§2) In Vitro Pig and Human TRPM8 Automated Patch-Clamp Assays
(§3) Automated whole-cell recordings of compound effects were performed on the SyncroPatch 384PE (Nanion Technologies, Munich, Germany) incorporated into a Biomek FX pipetting robot (Beckman Coulter, Jersey City, NJ, USA) using the same engineered CHO cell lines expressing human or pig TRPM8 channels. Data acquisition and analysis were performed with the proprietary software PatchControl 384 and DataControl 384, respectively (Nanion Technologies, Munich, Germany). All recordings were carried out using planar borosilicate glass patch clamp chips in a 384-microtiter plate format with patch hole resistances of 2-4 MO. For recordings, standard intracellular solution was used containing (in mM): 130 KF, 4 NaCl, 1 MgCl2, 0.5 CaCl2, 10 HEPES and 10 EGTA/KOH (pH 7.2) and standard extracellular solution contained in mM: 150 NaCl, 4 KCl, 0.5 CaCl2, 1 MgCl2 and 10 HEPES (pH 7.3).
(§4) Prior to the electrophysiological measurements, cells were harvested using Accutase (GIBCO, Fisher Scientific) and resuspended in warmed extracellular solution. The cell suspension was kept in the dedicated cell reservoir at 28° C. at a 1 million/ml cell density and shaken at 500 rounds per min (rpm). Experiments were performed at 28° C. throughout. Cells were distributed in high resistance 4-holes-per-well Nanion chips where they were caught on the patch holes by application of a −80 mbar pressure. The cell membrane was ruptured to obtain the whole-cell configuration with a pressure pulse of −250 mbar for 2 seconds. Voltage protocols were constructed using PatchControl 384. The cells were held at a holding potential of −60 mV and TRPM8 currents were recorded using a ramp protocol from −80 to +80 mV every 5 seconds before and after compound addition. Resulting currents were recorded at both −80 and +80 mV and current kinetics were exported and analyzed. From each plate, control wells with 200 μM menthol were recorded to validate the assay. One concentration of compound was applied to each of the other wells. For each concentration, compound response was determined by subtracting the baseline current recorded before compound addition from the maximum peak elicited currents obtained after compound addition. Then, each compound response was normalized to control condition without compound and maximum current (Emax) obtained for each compound. Nanion DataControl 384 software plotted current response for each compound concentration and was able to calculate an EC50 value for each active compound.

pig TRPM8 [4] = target: T2, pig TRPM8; assay: In vitro pig TRPM8 automated patch-clamp assay (SyncroPatch 384PE, CHO cells); conditions: CHO cells expressing pig TRPM8, 28° C.
Experimental: as §2, §3, §4

T1 sequence (Q7Z2W7 whole entry): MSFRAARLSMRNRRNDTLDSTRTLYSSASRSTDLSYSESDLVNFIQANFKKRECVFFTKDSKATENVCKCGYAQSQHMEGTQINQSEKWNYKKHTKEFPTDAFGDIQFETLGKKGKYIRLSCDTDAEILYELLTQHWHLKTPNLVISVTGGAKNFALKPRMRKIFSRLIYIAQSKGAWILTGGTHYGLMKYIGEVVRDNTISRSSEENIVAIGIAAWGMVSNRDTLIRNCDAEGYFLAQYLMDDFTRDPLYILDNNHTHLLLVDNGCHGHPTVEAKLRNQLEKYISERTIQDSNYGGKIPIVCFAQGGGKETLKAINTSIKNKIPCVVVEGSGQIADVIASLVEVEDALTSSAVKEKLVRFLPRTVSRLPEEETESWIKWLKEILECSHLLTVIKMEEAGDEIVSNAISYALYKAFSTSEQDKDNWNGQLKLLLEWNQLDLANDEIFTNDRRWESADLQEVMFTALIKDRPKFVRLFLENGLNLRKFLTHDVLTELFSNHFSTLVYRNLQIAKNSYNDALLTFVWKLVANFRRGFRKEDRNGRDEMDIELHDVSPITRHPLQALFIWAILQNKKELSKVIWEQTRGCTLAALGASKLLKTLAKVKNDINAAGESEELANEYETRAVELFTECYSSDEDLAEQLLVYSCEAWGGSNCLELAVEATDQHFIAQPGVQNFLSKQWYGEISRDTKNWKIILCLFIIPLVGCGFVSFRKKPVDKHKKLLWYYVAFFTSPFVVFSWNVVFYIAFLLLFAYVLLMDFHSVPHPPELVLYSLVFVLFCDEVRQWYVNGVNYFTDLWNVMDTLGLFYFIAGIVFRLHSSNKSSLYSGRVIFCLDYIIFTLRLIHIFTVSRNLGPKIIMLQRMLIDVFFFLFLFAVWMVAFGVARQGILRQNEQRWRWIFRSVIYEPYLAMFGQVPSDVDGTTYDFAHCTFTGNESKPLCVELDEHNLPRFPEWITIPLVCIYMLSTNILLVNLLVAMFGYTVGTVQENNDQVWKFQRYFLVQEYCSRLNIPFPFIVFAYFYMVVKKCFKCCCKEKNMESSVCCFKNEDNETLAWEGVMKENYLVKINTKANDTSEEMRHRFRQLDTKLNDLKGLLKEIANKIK
T2 sequence (F1SM15 1-1104): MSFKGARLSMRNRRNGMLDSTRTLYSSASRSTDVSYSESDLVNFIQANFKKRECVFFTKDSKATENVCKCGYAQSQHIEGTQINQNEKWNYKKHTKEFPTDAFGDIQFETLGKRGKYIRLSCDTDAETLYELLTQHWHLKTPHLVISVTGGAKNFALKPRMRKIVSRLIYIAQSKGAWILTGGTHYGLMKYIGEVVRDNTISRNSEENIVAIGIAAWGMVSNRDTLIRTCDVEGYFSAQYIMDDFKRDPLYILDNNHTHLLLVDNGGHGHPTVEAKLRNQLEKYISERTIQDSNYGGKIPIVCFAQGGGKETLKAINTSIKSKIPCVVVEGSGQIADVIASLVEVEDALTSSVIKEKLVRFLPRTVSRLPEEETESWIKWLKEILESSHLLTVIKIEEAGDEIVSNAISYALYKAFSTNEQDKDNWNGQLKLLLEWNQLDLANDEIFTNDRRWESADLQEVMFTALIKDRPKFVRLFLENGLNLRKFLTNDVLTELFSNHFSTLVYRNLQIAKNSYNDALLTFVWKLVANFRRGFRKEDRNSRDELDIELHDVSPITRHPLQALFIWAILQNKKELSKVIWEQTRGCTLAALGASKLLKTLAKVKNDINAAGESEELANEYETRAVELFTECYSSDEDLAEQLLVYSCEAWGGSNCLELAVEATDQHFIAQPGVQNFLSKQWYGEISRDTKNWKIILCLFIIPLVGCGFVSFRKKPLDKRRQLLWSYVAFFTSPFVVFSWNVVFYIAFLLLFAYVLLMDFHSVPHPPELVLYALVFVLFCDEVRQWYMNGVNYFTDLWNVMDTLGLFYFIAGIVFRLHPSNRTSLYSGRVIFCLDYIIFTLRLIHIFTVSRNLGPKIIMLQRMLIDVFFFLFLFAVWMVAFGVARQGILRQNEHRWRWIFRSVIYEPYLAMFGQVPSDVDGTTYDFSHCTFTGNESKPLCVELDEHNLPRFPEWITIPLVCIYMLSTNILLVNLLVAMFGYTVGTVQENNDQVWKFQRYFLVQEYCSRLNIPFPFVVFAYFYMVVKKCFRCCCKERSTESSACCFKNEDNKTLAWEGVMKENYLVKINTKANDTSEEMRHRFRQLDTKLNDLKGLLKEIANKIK

SMILES: CC(C)[C@@H]1CC[C@@H](C)C[C@@]1(O)C(=O)NCCc1ccccc1O [Example 116, (1S,2S,5R)-1-hydroxy-N-[2-(2-hydroxyphenyl)ethyl]-2-isopropyl-5-methyl-cyclohexanecarboxamide]
- EC50 (human TRPM8 [1]): 0.0033 µM
- EC50 (pig TRPM8 [2]): 0.0025 µM
- EC50 (human TRPM8 [3]): 1.3 µM
- EC50 (pig TRPM8 [4]): 0.504 µM

SMILES: CC(C)[C@@H]1CC[C@@H](C)C[C@@]1(O)C(=O)NCCc1cccc2c1OCC2 [Example 159, (1S,2S,5R)-N-[2-(2,3-dihydrobenzofuran-7-yl)ethyl]-1-hydroxy-2-isopropyl-5-methyl-cyclohexanecarboxamide]
- EC50 (human TRPM8 [1]): 0.0092 µM
- EC50 (pig TRPM8 [2]): 0.0049 µM
- EC50 (human TRPM8 [3]): 1 µM
- EC50 (pig TRPM8 [4]): 1.03 µM

SMILES: CC(C)[C@@H]1CC[C@@H](C)C[C@@]1(O)C(=O)NCC(CO)c1ccccc1 (stereo partly drawn) [Example 70, (1S,2S,5R)-1-hydroxy-N-(3-hydroxy-2-phenylpropyl)-2-isopropyl-5-methylcyclohexane-1-carboxamide]
- EC50 (human TRPM8 [1]): 0.009 µM
- EC50 (pig TRPM8 [2]): 0.008 µM
- EC50 (human TRPM8 [3]): 3.99 µM
- EC50 (pig TRPM8 [4]): 3.74 µM

SMILES: CC(C)[C@@H]1CC[C@@H](C)C[C@@]1(O)C(=O)NCC(=O)NCc1ccccc1 [Example 30, (1S,2S,5R)—N-(2-(benzylamino)-2-oxoethyl)-1-hydroxy-2-isopropyl-5-methylcyclohexane-1-carboxamide]
- EC50 (human TRPM8 [1]): 3.25 µM
- EC50 (pig TRPM8 [2]): 0.766 µM
- EC50 (pig TRPM8 [4]): > 10 µM

SMILES: CC(C)[C@@H]1CC[C@@H](C)C[C@@]1(O)C(=O)NCCc1ccccc1CCN [Example 53, (1S,2S,5R)—N-(2-(2-aminoethyl)phenethyl)-1-hydroxy-2-isopropyl-5-methylcyclohexane-1-carboxamide]
- EC50 (human TRPM8 [1]): 0.0024 µM
- EC50 (pig TRPM8 [2]): 0.0026 µM
- EC50 (human TRPM8 [3]): 0.2 µM
- EC50 (pig TRPM8 [4]): 0.326 µM

SMILES: COc1cc(CO)ccc1OC(=O)CNC(=O)[C@]1(O)C[C@H](C)CC[C@H]1C(C)C [Example 79, 4-(hydroxymethyl)-2-methoxyphenyl ((1S,2S,5R)-1-hydroxy-2-isopropyl-5-methylcyclohexane-1-carbonyl)glycinate]
- EC50 (human TRPM8 [1]): 0.0845 µM
- EC50 (pig TRPM8 [2]): 0.0576 µM
- EC50 (human TRPM8 [3]): 5.5 µM
- EC50 (pig TRPM8 [4]): 5.16 µM

SMILES: COC(=O)c1ccccc1CCNC(=O)[C@]1(O)C[C@H](C)CC[C@H]1C(C)C [Example 106, methyl 2-(2-((1S,2S,5R)-1-hydroxy-2-isopropyl-5-methylcyclohexane-1-carboxamido)ethyl)benzoate]
- EC50 (human TRPM8 [1]): 0.0293 µM
- EC50 (pig TRPM8 [2]): 0.0232 µM
- EC50 (pig TRPM8 [4]): > 10 µM

SMILES: CC(C)[C@@H]1CC[C@@H](C)C[C@@]1(O)C(=O)NCC(C)(O)c1ccccc1 (stereo partly drawn) [Example 164, (1S,2S,5R)-1-hydroxy-N-(2-hydroxy-2-phenyl-propyl)-2-isopropyl-5-methyl-cyclohexanecarboxamide]
- EC50 (human TRPM8 [1]): 0.0343 µM
- EC50 (pig TRPM8 [2]): 0.0212 µM
- EC50 (human TRPM8 [3]): 2.2 µM
- EC50 (pig TRPM8 [4]): 1.04 µM

SMILES: CC(C)[C@@H]1CC[C@@H](C)C[C@@]1(O)C(=O)NCCc1ccncc1 [Example 119, (1S,2S,5R)-1-hydroxy-2-isopropyl-5-methyl-N-[2-(4-pyridyl)ethyl]cyclohexanecarboxamide]
- EC50 (human TRPM8 [1]): 0.0374 µM
- EC50 (pig TRPM8 [2]): 0.0063 µM
- EC50 (human TRPM8 [3]): 3.2 µM
- EC50 (pig TRPM8 [4]): 7.21 µM

SMILES: CC(C)[C@@H]1CC[C@@H](C)C[C@@]1(O)C(=O)NCCc1ccc(CO)cc1 [Example 109, (1S,2S,5R)-1-hydroxy-N-(4-(hydroxymethyl)phenethyl)-2-isopropyl-5-methylcyclohexane-1-carboxamide]
- EC50 (human TRPM8 [1]): 0.0224 µM
- EC50 (pig TRPM8 [2]): 0.0119 µM
- EC50 (human TRPM8 [3]): 2.2 µM
- EC50 (pig TRPM8 [4]): 1.77 µM

SMILES: COC(=O)[C@@H](N)Cc1ccccc1CCNC(=O)[C@]1(O)C[C@H](C)CC[C@H]1C(C)C [Example 19, methyl (S)-2-amino-3-(2-(2-((1S,2S,5R)-1-hydroxy-2-isopropyl-5-methylcyclohexane-1-carboxamido)ethyl)phenyl)propanoate]
- EC50 (human TRPM8 [1]): 0.0071 µM
- EC50 (pig TRPM8 [2]): 0.0199 µM
- EC50 (human TRPM8 [3]): 1.7 µM
- EC50 (pig TRPM8 [4]): 1.52 µM

SMILES: CC(C)[C@@H]1CC[C@@H](C)C[C@@]1(O)C(=O)NC[C@@H](F)c1ccccc1 [Example 180, (1S,2S,5R)—N-((2S)-2-fluoro-2-phenylethyl)-1-hydroxy-2-isopropyl-5-methylcyclohexane-1-carboxamide]
- EC50 (human TRPM8 [1]): 0.003 µM
- EC50 (pig TRPM8 [2]): 0.0012 µM
- EC50 (human TRPM8 [3]): 1.7 µM
- EC50 (pig TRPM8 [4]): 1.01 µM

SMILES: CC(C)[C@@H]1CC[C@@H](C)C[C@@]1(O)C(=O)NCC(NC(=O)CN)c1ccccc1 (single isomer, unassigned) [Example 184]
- EC50 (human TRPM8 [1]): 0.0145 µM
- EC50 (pig TRPM8 [2]): 0.0281 µM
- EC50 (human TRPM8 [3]): 0.6 µM
- EC50 (pig TRPM8 [4]): 0.567 µM

SMILES: CC(C)[C@@H]1CC[C@@H](C)C[C@@]1(O)C(=O)NCC(=O)c1ccccc1O [Example 38, (1S,2S,5R)-1-hydroxy-N-(2-(2-hydroxyphenyl)-2-oxoethyl)-2-isopropyl-5-methylcyclohexane-1-carboxamide]
- EC50 (human TRPM8 [1]): 0.0024 µM
- EC50 (pig TRPM8 [2]): 0.0018 µM
- EC50 (human TRPM8 [3]): 0.47 µM
- EC50 (pig TRPM8 [4]): 0.276 µM

SMILES: COC(=O)COc1cccc(C(O)CNC(=O)[C@]2(O)C[C@H](C)CC[C@H]2C(C)C)c1 (stereo partly drawn) [Example 33, methyl 2-(3-(1-hydroxy-2-((1S,2S,5R)-1-hydroxy-2-isopropyl-5-methylcyclohexane-1-carboxamido)ethyl)phenoxy)acetate]
- EC50 (human TRPM8 [1]): 0.065 µM
- EC50 (pig TRPM8 [2]): 0.038 µM
- EC50 (human TRPM8 [3]): 4.2 µM
- EC50 (pig TRPM8 [4]): 4.31 µM

SMILES: COC(=O)CO[C@H](CNC(=O)[C@]1(O)C[C@H](C)CC[C@H]1C(C)C)c1ccccc1 [Example 57, methyl 2-((S)-2-((1S,2S,5R)-1-hydroxy-2-isopropyl-5-methylcyclohexane-1-carboxamido)-1-phenylethoxy)acetate]
- EC50 (human TRPM8 [1]): 0.254 µM
- EC50 (pig TRPM8 [2]): 0.219 µM
- EC50 (pig TRPM8 [4]): > 10 µM

SMILES: CC(C)[C@@H]1CC[C@@H](C)C[C@@]1(O)C(=O)NCCc1cccc(CO)c1 [Example 15, (1S,2S,5R)-1-hydroxy-N-(3-(hydroxymethyl)phenethyl)-2-isopropyl-5-methylcyclohexane-1-carboxamide]
- EC50 (human TRPM8 [1]): 0.003 µM
- EC50 (pig TRPM8 [2]): 0.0021 µM
- EC50 (human TRPM8 [3]): 1.43 µM
- EC50 (pig TRPM8 [4]): 1.51 µM

SMILES: CC(C)[C@@H]1CC[C@@H](C)C[C@@]1(O)C(=O)NCCc1ccccc1OCC[N+](C)(C)C [Example 11, 2-(2-(2-((1S,2S,5R)-1-hydroxy-2-isopropyl-5-methylcyclohexane-1-carboxamido)ethyl)phenoxy)-N,N,N-trimethylethan-1-aminium iodide]
- EC50 (human TRPM8 [1]): 0.148 µM
- EC50 (pig TRPM8 [2]): 0.298 µM
- EC50 (human TRPM8 [3]): 3.7 µM
- EC50 (pig TRPM8 [4]): 4.9 µM

SMILES: CC(C)[C@@H]1CC[C@@H](C)C[C@@]1(O)C(=O)NC[C@@H](O)c1cccc(O)c1 [Example 42, (1S,2S,5R)-1-hydroxy-N-((2S)-hydroxy-2-(3-hydroxyphenyl)ethyl)-2-isopropyl-5-methylcyclohexane-1-carboxamide]
- EC50 (human TRPM8 [1]): 0.0124 µM
- EC50 (pig TRPM8 [2]): 0.0038 µM
- EC50 (human TRPM8 [3]): 0.91 µM
- EC50 (pig TRPM8 [4]): 0.921 µM

SMILES: CC(C)[C@@H]1CC[C@@H](C)C[C@@]1(O)C(=O)NCCO [Example 110, (1S,2S,5R)-1-hydroxy-N-(2-hydroxyethyl)-2-isopropyl-5-methylcyclohexane-1-carboxamide]
- EC50 (human TRPM8 [1]): 1.64 µM
- EC50 (pig TRPM8 [2]): 0.639 µM
- EC50 (pig TRPM8 [4]): > 10 µM

SMILES: CC(C)[C@@H]1CC[C@@H](C)C[C@@]1(O)C(=O)N[C@H](CCO)c1ccccc1 [Example 86, (1S,2S,5R)-1-hydroxy-N—((R)-3-hydroxy-1-phenylpropyl)-2-isopropyl-5-methylcyclohexane-1-carboxamide]
- EC50 (human TRPM8 [1]): 0.547 µM
- EC50 (pig TRPM8 [2]): 0.749 µM
- EC50 (pig TRPM8 [4]): > 10 µM

SMILES: COc1ccc(NC(=O)[C@]2(O)C[C@H](C)CC[C@H]2C(C)C)cc1 [Example 174, (1S,2S,5R)-1-hydroxy-N-(4-methoxyphenyl)-5-methyl-2-propan-2-ylcyclohexane-1-carboxamide]
- EC50 (human TRPM8 [1]): 0.119 µM
- EC50 (pig TRPM8 [2]): 0.0334 µM
- EC50 (pig TRPM8 [4]): 2.17 µM

SMILES: CC(C)[C@@H]1CC[C@@H](C)C[C@@]1(O)C(=O)NCC1COc2ccccc21 (stereo partly drawn) [Example 162, (1S,2S,5R)-N-(2,3-dihydrobenzofuran-3-ylmethyl)-1-hydroxy-2-isopropyl-5-methyl-cyclohexanecarboxamide]
- EC50 (human TRPM8 [1]): 0.0053 µM
- EC50 (pig TRPM8 [2]): 0.004 µM
- EC50 (pig TRPM8 [4]): 1.4 µM
